What was measured:
Format in all cases: in vitro ADME
[1] = target: T1, CYP3A4 (Homo sapiens, UniProt P08684); test: CYP3A4 inhibition in pooled human liver microsomes (testosterone 6β-hydroxylation)
T1 construct: marker reactions with specific substrates in human liver microsomes (HLMs); from tissue; host or cells: pooled human liver microsomes
Description: (§1) The activity of CYP450s was evaluated by the marker reactions with specific substrates in human liver microsomes (HLMs). The reaction conditions are summarized in Table 1 according to previous studies. The concentration of anemarsaponin BII was 100 μM with the following concentration of specific inhibitors: 10 μM furafylline for CYP1A2, 10 μM tranylcypromine for CYP2A6, 1 μM ketoconazole for CYP3A4, 5 μM montelukast for CYP2C8, 10 μM sulfaphenazole for CYP2C9, 50 μM tranylcypromine for CYP2C19, 10 μM quinidine for CYP2D6, 50 μM clomethiazole for CYP2E1. 200 μL incubation system included 100 mM potassium phosphate buffer (pH 7.4), NADPH generating system (1 mM NADP^+, 10 mM glucose-6-phosphate, 1 U/mL of glucose-6-phosphate dehydrogenase, and 4 mM MgCl2), the appropriate concentration of HLMs, a corresponding probe substrate and anemarsaponin BII (or positive inhibitor for different probe reactions). The HADPH-generating system was added before the incubation to preincubate for 3 min at 37 °C. The reaction was terminated with 100 μL acetonitrile (10% trichloroacetic acid for CYP2A6). Then, the mixture was centrifuged at 12,000 rpm for 10 min, and an aliquot (50 μL) of supernatant was transferred for HPLC analysis with the help of the Agilent 1260 series instrument with DAD and FLD detector according to previous studies. The HPLC conditions for analysis of corresponding metabolites of CYP isoforms are summarized in Table 2 based on previous studies (Lang et al. [2017]; Zhang et al. [2017]).
(§2) Incubations were performed in triplicate, and results were represented with the mean value. […]
(§3) The effect of anemarsaponin BII on the activity of CYPs was evaluated in pooled human liver microsomes according to previous studies (Dong et al. [2018]; Wang et al. [2019]). The residual activity of eight CYP isoforms was first detected with 100 μM anemarsaponin BII in HLMs. […]
(§4) The enzyme kinetic parameters for the probe reaction were estimated from the best fit line, using least-squares linear regression of the inverse substrate concentration versus the inverse velocity (Lineweaver–Burk plots), and the mean values were used to calculate Vmax and Km. Inhibition data from the experiments that were conducted using multiple compound concentrations were represented by Dixon plots, and inhibition constant (KI) values were calculated using non-linear regression according to the following equation: Competitive inhibition:v=(VmaxS)/(Km(1+I/KI)+S), Non-competitive inhibition:v=(VmaxS)/[Km+S(1+I/KIKi)] where I is the concentration of the compound, KI is the inhibition constant, S is the concentration of the substrate, and Km is the substrate concentration at half the maximum velocity (Vmax) of the reaction. […]

[2] = target: T2, CYP2D6 (Homo sapiens, UniProt P10635); test: CYP2D6 inhibition in pooled human liver microsomes (dextromethorphan O-demethylation)
T2 construct: marker reactions with specific substrates in human liver microsomes (HLMs); from tissue; host or cells: pooled human liver microsomes
Description: as §1, §2, §3, §4

[3] = target: T3, CYP2E1 (Homo sapiens, UniProt P05181); test: CYP2E1 inhibition in pooled human liver microsomes (chlorzoxazone 6-hydroxylation)
T3 construct: marker reactions with specific substrates in human liver microsomes (HLMs); from tissue; host or cells: pooled human liver microsomes
Description: as §1
Incubations were performed in triplicate, and results were represented with the mean value. The final microsomal protein concentration and incubation times for the different probe reactions are summarized in Table 1 based on previous studies (Lang et al. [2017]; Wang et al. [2019]).
The effect of anemarsaponin BII on the activity of CYPs was evaluated in pooled human liver microsomes according to previous studies (Dong et al. [2018]; Wang et al. [2019]). The residual activity of eight CYP isoforms was first detected with 100 μM anemarsaponin BII in HLMs. Next, CYPs of which the activity was inhibited by anemarsaponin BII was incubated with 0, 2.5, 5, 10, 25, 50 and 100 μM anemarsaponin BII to explore the values of half inhibition concentration (IC50). Additionally, 0–50 μM anemarsaponin BII was incubated with various concentration of probe substrates (20–100 μM testosterone for CYP3A4, 10–50 μM dextromethorphan for CYP2D6, and 25–250 μM chlorzoxazone for CYP2E1) to obtain the values of KI.
as §4, with “reaction. The mechanism of the inhibition was inspected using the Lineweaver–Burk plots and the enzyme inhibition models.” for “reaction.”

[4] = 100 μM anemarsaponin BII, residual activity
[5] = HLMs, 0-100 μM anemarsaponin BII

T3 sequence (P05181 whole entry): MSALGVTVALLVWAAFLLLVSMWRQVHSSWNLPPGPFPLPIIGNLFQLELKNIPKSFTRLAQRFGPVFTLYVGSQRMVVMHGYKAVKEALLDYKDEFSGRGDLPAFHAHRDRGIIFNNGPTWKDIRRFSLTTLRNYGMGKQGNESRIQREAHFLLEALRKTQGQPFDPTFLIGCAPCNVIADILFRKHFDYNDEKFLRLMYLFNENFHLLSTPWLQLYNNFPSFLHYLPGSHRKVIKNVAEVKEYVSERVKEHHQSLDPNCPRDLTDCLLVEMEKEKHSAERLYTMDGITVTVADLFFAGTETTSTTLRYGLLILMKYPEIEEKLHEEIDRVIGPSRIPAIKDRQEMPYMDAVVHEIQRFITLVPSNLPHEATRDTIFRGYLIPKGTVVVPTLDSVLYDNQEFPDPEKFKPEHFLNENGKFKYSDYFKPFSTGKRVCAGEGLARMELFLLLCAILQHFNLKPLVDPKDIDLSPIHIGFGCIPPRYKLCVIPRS
T2 sequence (P10635 whole entry): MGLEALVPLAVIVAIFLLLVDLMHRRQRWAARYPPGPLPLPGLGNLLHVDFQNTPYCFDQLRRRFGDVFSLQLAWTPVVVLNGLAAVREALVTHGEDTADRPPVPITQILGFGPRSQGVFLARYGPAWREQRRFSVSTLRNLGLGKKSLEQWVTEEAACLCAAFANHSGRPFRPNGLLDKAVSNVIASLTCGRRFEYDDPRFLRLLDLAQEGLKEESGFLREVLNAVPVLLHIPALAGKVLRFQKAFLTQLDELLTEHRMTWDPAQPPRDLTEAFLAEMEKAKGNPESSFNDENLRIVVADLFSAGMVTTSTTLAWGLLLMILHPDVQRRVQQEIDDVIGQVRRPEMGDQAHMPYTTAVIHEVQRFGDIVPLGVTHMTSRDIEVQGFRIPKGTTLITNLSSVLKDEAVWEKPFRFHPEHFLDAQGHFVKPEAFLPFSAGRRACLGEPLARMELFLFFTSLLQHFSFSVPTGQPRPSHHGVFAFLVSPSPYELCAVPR
T1 sequence (P08684 whole entry): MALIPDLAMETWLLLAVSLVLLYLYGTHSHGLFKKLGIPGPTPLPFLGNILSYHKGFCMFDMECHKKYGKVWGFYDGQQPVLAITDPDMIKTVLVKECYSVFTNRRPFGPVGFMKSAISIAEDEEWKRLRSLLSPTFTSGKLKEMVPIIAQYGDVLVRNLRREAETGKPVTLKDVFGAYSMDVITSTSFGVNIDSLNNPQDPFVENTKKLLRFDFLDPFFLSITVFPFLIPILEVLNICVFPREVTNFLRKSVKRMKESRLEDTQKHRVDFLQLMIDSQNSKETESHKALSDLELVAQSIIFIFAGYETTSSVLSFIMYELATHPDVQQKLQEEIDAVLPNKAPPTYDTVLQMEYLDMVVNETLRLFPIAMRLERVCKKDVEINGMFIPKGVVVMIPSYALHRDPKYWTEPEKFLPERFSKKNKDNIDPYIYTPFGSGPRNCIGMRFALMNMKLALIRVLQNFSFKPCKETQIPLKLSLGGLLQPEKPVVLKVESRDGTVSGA

CC(CCC1(O)OC2CC3C4CCC5CC(OC6OC(CO)C(O)C(O)C6OC6OC(CO)C(O)C(O)C6O)CCC5(C)C4CCC3(C)C2C1C)COC1OC(CO)C(O)C(O)C1O (stereo not drawn) [anemarsaponin BII, Anemarsaponin BII]
activity of CYP3A4 decreased to (relative to untreated HLMs) [1, 4]: 15.65%
inhibition model CYP3A4 (Lineweaver–Burk) ([1]; HLMs): non-competitive
IC50 [1, 5]: 13.7 µM
Ki ([1]; HLMs, 20–100 μM testosterone, non-competitive model): 6.72 µM
activity of CYP2D6 decreased to (relative to untreated HLMs) [2, 4]: 18.79%
inhibition model CYP2D6 (Lineweaver–Burk) ([2]; HLMs): competitive
IC50 [2, 5]: 16.3 µM
Ki ([2]; HLMs, 10–50 μM dextromethorphan, competitive model): 8.26 µM
activity of CYP2E1 decreased to (relative to untreated HLMs) [3, 4]: 23.45%
inhibition model CYP2E1 (Lineweaver–Burk) ([3]; HLMs): competitive
IC50 [3, 5]: 19.7 µM
Ki ([3]; HLMs, 25–250 μM chlorzoxazone, competitive model): 9.82 µM

Source: publication PMC7592892, “Anemarsaponin BII inhibits the activity of CYP3A4, 2D6, and 2E1 with human liver microsomes” (Pharmaceutical Biology, 2020)
